Laboratory results: ChEMBL document CHEMBL5038572, “Thermodynamic Dissection of Potency and Selectivity of Cytosolic Hsp90 Inhibitors” (J Med Chem, 2021)
Activity calls are given as the source filed them. The rule behind the calls is not given here.

Legend:
[1] = molecular target: T1, Heat shock protein HSP 90-alpha (Homo sapiens, UniProt P07900); test: Binding affinity to human HSP90-alpha N-terminal domain assessed as change in enthalpy by measuring dissociation constant at 100 uM at 25 degC by isothermal titration calorimetry
[2] = molecular target: T1, Heat shock protein HSP 90-alpha; test: Inhibition of FITC-GDA binding to human HSP90-alpha incubated for 2 hrs followed by FITC-GDA addition and measured after 5 hrs by fluorescence polarization competitive binding assay
[3] = molecular target: Heat shock protein HSP 90-beta (Homo sapiens, UniProt P08238); test: Binding affinity to human HSP90-beta by fluorescence polarization competitive binding assay
[4] = molecular target: Endoplasmin (Homo sapiens, UniProt P14625); test: Binding affinity to GRP94 (unknown origin) by fluorescence polarization competitive binding assay
[5] = molecular target: T1, Heat shock protein HSP 90-alpha; test: Binding affinity to human HSP90-alpha at protein to compound molar ratio of 1:1
[6] = molecular target: T1, Heat shock protein HSP 90-alpha; test: Binding affinity to human HSP90-alpha N-terminal domain assessed as gibbs free energy change at 100 uM by isothermal titration calorimetry
[7] = molecular target: T1, Heat shock protein HSP 90-alpha; test: Binding affinity to human HSP90-alpha N-terminal domain assessed as change in enthalpy at 100 uM by isothermal titration calorimetry
[8] = molecular target: T2, Heat shock protein 75 kDa, mitochondrial (Homo sapiens, UniProt Q12931); test: Binding affinity to TRAP1 (unknown origin) by fluorescence polarization competitive binding assay
T2 sequence (Q12931 whole entry): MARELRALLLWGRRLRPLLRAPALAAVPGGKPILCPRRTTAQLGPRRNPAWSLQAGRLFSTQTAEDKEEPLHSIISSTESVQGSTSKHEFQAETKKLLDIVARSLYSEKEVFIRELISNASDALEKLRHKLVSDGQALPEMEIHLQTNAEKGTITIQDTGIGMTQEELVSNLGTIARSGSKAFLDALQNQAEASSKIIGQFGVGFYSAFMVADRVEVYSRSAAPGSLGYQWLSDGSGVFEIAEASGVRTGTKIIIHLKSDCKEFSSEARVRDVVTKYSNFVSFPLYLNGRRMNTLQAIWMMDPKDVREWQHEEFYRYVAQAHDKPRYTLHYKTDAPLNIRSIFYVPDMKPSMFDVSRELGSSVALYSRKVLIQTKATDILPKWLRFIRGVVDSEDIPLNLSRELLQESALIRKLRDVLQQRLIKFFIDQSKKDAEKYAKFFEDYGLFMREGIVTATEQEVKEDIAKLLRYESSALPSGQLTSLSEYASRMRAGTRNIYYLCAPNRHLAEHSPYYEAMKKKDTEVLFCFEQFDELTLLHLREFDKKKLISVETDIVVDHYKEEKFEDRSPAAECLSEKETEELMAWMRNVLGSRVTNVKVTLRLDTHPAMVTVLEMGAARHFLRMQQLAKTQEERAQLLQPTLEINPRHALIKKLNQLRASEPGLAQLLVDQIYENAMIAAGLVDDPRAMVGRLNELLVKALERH

[9] = molecular target: T1, Heat shock protein HSP 90-alpha; test: Binding affinity to human HSP90-alpha assessed as change in heat capacity at 20 to 30 degC by isothermal titration calorimetry
[10] = molecular target: T1, Heat shock protein HSP 90-alpha; test: Binding affinity to human HSP90-alpha N-terminal domain assessed as change in entropy at 100 uM by isothermal titration calorimetry
[11] = molecular target: T1, Heat shock protein HSP 90-alpha; test: Binding affinity to human HSP90-alpha N-terminal domain assessed as dissociation constant at 100 uM at 25 degC by isothermal titration calorimetry

Endoplasmin, sequence (P14625 whole entry): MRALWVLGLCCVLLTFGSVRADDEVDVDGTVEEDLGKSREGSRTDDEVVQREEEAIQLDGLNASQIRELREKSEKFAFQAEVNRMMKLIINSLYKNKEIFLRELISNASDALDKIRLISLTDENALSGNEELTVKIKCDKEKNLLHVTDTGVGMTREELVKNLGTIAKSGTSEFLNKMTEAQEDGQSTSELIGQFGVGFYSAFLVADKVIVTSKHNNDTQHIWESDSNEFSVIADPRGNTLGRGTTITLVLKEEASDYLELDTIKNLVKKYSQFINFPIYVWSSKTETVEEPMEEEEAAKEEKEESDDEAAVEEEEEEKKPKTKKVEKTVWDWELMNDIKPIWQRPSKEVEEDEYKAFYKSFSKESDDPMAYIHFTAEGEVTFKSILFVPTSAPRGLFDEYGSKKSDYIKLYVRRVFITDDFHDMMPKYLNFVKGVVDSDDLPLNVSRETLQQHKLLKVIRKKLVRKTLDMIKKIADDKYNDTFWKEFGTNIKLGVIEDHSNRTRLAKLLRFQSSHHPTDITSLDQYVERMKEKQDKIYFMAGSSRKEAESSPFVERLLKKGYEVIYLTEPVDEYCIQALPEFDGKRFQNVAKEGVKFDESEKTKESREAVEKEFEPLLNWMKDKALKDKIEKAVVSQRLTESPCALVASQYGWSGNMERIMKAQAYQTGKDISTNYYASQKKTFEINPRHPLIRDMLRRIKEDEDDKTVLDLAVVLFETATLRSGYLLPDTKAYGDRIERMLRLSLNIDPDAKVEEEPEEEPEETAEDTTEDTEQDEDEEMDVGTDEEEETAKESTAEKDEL
Heat shock protein HSP 90-beta, sequence (P08238 whole entry): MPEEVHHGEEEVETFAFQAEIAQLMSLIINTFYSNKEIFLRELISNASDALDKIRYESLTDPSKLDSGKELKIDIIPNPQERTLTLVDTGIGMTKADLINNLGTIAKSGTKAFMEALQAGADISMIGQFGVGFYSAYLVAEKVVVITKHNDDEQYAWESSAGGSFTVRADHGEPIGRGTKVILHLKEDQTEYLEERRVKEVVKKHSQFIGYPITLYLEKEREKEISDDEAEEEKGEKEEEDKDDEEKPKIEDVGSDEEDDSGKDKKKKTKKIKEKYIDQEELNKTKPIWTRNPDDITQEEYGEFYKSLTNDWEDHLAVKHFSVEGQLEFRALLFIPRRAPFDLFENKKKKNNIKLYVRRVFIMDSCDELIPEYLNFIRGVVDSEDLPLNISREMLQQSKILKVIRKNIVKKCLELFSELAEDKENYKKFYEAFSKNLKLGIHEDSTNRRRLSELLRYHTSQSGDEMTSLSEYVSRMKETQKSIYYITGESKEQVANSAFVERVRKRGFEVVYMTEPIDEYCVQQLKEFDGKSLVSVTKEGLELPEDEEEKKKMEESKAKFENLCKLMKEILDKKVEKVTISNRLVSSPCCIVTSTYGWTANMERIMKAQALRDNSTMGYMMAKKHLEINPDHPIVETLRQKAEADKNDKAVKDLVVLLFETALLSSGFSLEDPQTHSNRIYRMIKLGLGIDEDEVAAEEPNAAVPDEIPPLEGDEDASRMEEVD

`CC(C)c1n[nH]c2nccc(-n3cnc(-c4cccnc4)c3)c12` showed a Kd [1] of 2.7 µM, an IC50 [2] of 293 µM and an IC50 [3] of 89 µM. The IC50 [4] was > 300 µM, the Activity [5] was “Active” and the deltaG [6] was -7.6 kcal/mol. For the same compound, the deltaH [7] was -5.7 kcal/mol, the IC50 [8] was > 300 µM and the DeltaCp [9] was 0.56 kcal/mol.K. The -TdeltaS [10] was -1.9 kcal/mol.

For `NC(=O)c1ccc(-c2nccc3c(-n4cnc(-c5ccccc5)c4)ccnc23)cc1NC1CCC(O)CC1` (stereo not given), the Ki [2] was 13 µM, the Ki [3] was 17 µM and the Ki [4] was > 300 µM. The Ki [8] was > 300 µM.

`CC(C)c1n[nH]c2nccc(-n3cnc(-c4cnn(C)c4)c3)c12` was tested, and the IC50 [2] was 300 µM, the IC50 [3] was 218 µM and the IC50 [4] was > 300 µM. The IC50 [8] was > 300 µM.

`CCc1cc(C(N)=O)ccc1-n1nc(C(C)C)c2c(-n3cnc(-c4cnn(C)c4)c3)ccnc21` [TAS-116] showed a Kd [11] of 0.17 µM and a DeltaCp [9] of -0.29 kcal/mol.K.
